Measured values as given in article PMC11858513, “Antibiofilm Activities of Tritrpticin Analogs Against Pathogenic Pseudomonas aeruginosa PA01 Strains” (Molecules, 2025).
Values after ≈ are worked out from the molar mass of the structure shown. Like-named read-outs stand apart in the source and are kept apart here. Residues, ends and D or L forms follow the SMILES beside them.

Columns and labels:
S. aureus GFP [1] = experiment: MBIC, GFP fluorescence method; type: cell-based, Staphylococcus aureus; settings: Table 4, Sa GFP, 10% TSB and 0.1% glucose, mean of three biological replicates
Method: (§1) Figure 3 The MIC (A), MBIC (B) and MBEC (C) values for the tritrpticin analog peptides were assessed against Sa GFP. The MIC values were determined by measuring the absorbance of bacterial cells at 600 nm. The MBIC and MBEC values were determined by recording the fluorescence at 480 nm and 530 nm from the biofilms of GFP-expressing Sa. Three biological replicates were run for each test sample, and the mean was calculated for the recorded absorption or fluorescence values. In the graphs, the error bars represent the standard deviation (±SD).
(§2) The methods to determine the MIC, MBIC and MBEC have been described in detail in our previous publication. The green fluorescent protein (GFP)-producing P. aeruginosa and S. aureus strains that were used in this work were also described in the earlier publication. Fluorescence detection was used as the main method to estimate the number of cells entrapped in the biofilm matrix. The methodology used for evaluation of the antibiofilm properties against an original Pseudomonas PA01 strain by crystal violet dye staining and the use of the Calgary biofilm device has been described elsewhere. The regular PA01 strain was provided by Dr. J. Harrison, Calgary. All measurements were carried out on an Eppendorf AF2200 plate reader. Every 96-well plate included controls for bacterial cell growth without peptide treatment and media alone. All measurements were carried out in triplicate, and the values in the figures represent the average and the error bars are standard deviation.

P. aeruginosa PAO1 [2] = type: cell-based, Pseudomonas aeruginosa; settings: Table 5; regular PAO1 (no GFP), 1x BM2; absorbance 600 nm; mean of three biological replicates
Method: (§3) Figure 4 The MIC (A), MBIC (B) and MBRC (C) values for the peptides were assessed against P. aeruginosa PAO1 in the presence of 1× BM2. The inhibition of planktonic cells, the inhibition of biofilm cells and the reduction in biofilm cells were determined for the peptides by recording of the planktonic cells at 600 nm and quantification of biofilms formed by Pa PAO1 using crystal violet at 595 nm, respectively. Three biological replicates were run for each test sample, and the mean was calculated for the recorded absorption values. Data points with error bars indicate the standard deviation (±SD).
(§4) Figure 6 The MIC (A), MBIC (B) and MBEC (C) values for the tritrpticin-Lys derivatives against P. aeruginosa PAO1 were assessed by the crystal violet (CV) assay for the measurement of inhibition of biofilm formation and eradication of biofilm cells, respectively. The biofilm cells were rinsed, stained with 0.1% crystal violet for 15 min and then rinsed again. The CV was released from biofilm cells by the addition of 95% ethanol and quantified by reading on a spectrometer at 595 nm. Three replicates were run for each sample, the values were averaged and the error bars represent the standard deviation (±SD).
as §2

S. aureus GFP [3] = experiment: MBEC, GFP fluorescence method; type: cell-based, Staphylococcus aureus; settings: Table 4, Sa GFP, 10% TSB and 0.1% glucose, mean of three biological replicates
Method: as §1, §2

P. aeruginosa PAO1 GFP [4] = experiment: MBEC, biofilm eradication, GFP fluorescence method; type: cell-based, Pseudomonas aeruginosa; settings: Table 2, BM2 medium, mean of three biological replicates
Method: (§5) Figure 1 The MIC (A), MBIC (B) and MBEC (C) values for the tritrpticin analog peptides were assessed against Pa PAO1 GFP. The MIC values were determined by measuring the absorbance of bacterial cells at 600 nm. The MBIC and MBEC values were determined by recording the fluorescence at 480 nm and 530 nm from the biofilms of GFP-expressing PAO1. Three biological replicates were run for each test sample, and the mean was calculated for the recorded absorption or fluorescence values. In the graphs, the error bars represent the standard deviation (±SD).
(§6) Figure 2 The MIC (A), MBIC (B) and MBEC (C) values for the tritrpticin-Lys derivative peptides were assessed against Pa PAO1 GFP. The MIC values were determined by measuring the absorbance of bacterial cells at 600 nm. The MBIC and MBEC values were determined by recording the fluorescence at 480 nm and 530 nm from the biofilms of GFP-expressing PAO1. Three replicates were run for each sample, the values were averaged and the error bars represent the standard deviation (±SD).
as §2

S. aureus GFP [5] = type: cell-based, Staphylococcus aureus; settings: Table 4; Sa GFP; lowest concentration of peptide with no bacterial growth seen on the spot agar plate
Source text: as §2

P. aeruginosa PAO1 GFP [6] = experiment: MBIC, prevention of biofilm formation, GFP fluorescence method; type: cell-based, Pseudomonas aeruginosa; settings: Table 2, BM2 medium, mean of three biological replicates
Method: as §5, §6, §2

P. aeruginosa PAO1 [7] = type: cell-based
Method: (§7) We note the close agreement with the MBIC and MBEC values determined by the fluorescence and CV methods, similar to what we found in our previous work for an S. aureus MRSA strain [23]. We also re-evaluated the MBEC values that are measured using the Calgary biofilm device (CBD), where biofilms form on pegs, rather than at the bottom of the 96-well plates. […] In particular, we find that the single Pro9Ala Tritrp-P9A-substituted version has better MIC, MBIC and MBEC activities than the parent peptide as well as the Tritrp-P59A analog with both prolines substituted to Ala.
as §3, §4, §2

S. aureus GFP [8] = experiment: MIC against planktonic cells, absorbance at 600 nm; type: cell-based, Staphylococcus aureus; settings: Table 4; Sa GFP, 10% TSB and 0.1% glucose; absorbance 600 nm; mean of three biological replicates
Method: as §1, §2

P. aeruginosa PAO1 GFP [9] = experiment: MIC against planktonic cells, absorbance at 600 nm; type: cell-based, Pseudomonas aeruginosa; settings: Table 2, BM2 medium, absorbance 600 nm, mean of three biological replicates
Method: as §5, §6, §2

P. aeruginosa PAO1 [10] = type: cell-based, Pseudomonas aeruginosa; settings: Table 5; PAO1, 1x BM2; biofilms on pegs, cells plated and counted; three biological replicates
Method: as §7
Figure 5 The MBEC values for the peptides were assessed against P. aeruginosa PAO1 in the presence of 1× BM2 medium. The eradication of biofilm cells was determined for the peptides using the counting of biofilm cells formed by Pa PAO1. Three biological replicates were run for each test sample, and the mean was calculated for counted cell values. Data points with error bars indicate the standard deviation (±SD).
as §2

[11] = Table 5, PAO1, 1x BM2, crystal violet at 595 nm, mean of three biological replicates
[12] = Table 5, minimum biofilm reduction concentration, PAO1, 1x BM2, crystal violet at 595 nm, mean of three biological replicates

| SMILES | MBIC at 488 and 530 nm LD50 (S. aureus GFP [1]) [µmol/L] | MBIC at 488 and 530 nm LD90 (S. aureus GFP [1]) [µmol/L] | MIC at 600 nm LD50 (P. aeruginosa PAO1 [2]) [µM] | MIC at 600 nm LD90 (P. aeruginosa PAO1 [2]) [µM] | MBEC at 488 and 530 nm LD50 (S. aureus GFP [3]) [µmol/L] | MBEC at 488 and 530 nm LD90 (S. aureus GFP [3]) [µmol/L] | MBEC at 488 and 530 nm LD50 (P. aeruginosa PAO1 GFP [4]) [µmol/L] | MBEC at 488 and 530 nm LD90 (P. aeruginosa PAO1 GFP [4]) [µmol/L] | MBC Agar Plate (S. aureus GFP [5]) [µM] | MBIC at 488 and 530 nm LD50 (P. aeruginosa PAO1 GFP [6]) [µmol/L] | MBIC at 488 and 530 nm LD90 (P. aeruginosa PAO1 GFP [6]) [µmol/L] | MBIC (CV at 595 nm) LD50 (P. aeruginosa PAO1 [7]; [11]) [µmol/L] | MBIC (CV at 595 nm) LD90 (P. aeruginosa PAO1 [7]; [11]) [µmol/L] | MBRC (CV at 595 nm) LD90 (P. aeruginosa PAO1 [7]; [12]) [µmol/L] | MIC at 600 nm LD50 (S. aureus GFP [8]) [µM] | MIC at 600 nm LD90 (S. aureus GFP [8]) [µM] | MIC at 600 nm LD50 (P. aeruginosa PAO1 GFP [9]) [µM] | MIC at 600 nm LD90 (P. aeruginosa PAO1 GFP [9]) [µM] | MBEC from Calgary Biofilm Device (CBD) LD50 (P. aeruginosa PAO1 [10]) [µmol/L] | MBEC from Calgary Biofilm Device (CBD) LD90 (P. aeruginosa PAO1 [10]) [µmol/L] | further results |
| --- | --- | --- | --- | --- | --- | --- | --- | --- | --- | --- | --- | --- | --- | --- | --- | --- | --- | --- | --- | --- | --- |
| CC(C)[C@H](NC(=O)[C@@H]1CCCN1C(=O)[C@@H](N)Cc1ccccc1)C(=O)N[C@H](C(=O)N[C@@H](Cc1c[nH]c2ccccc12)C(=O)N[C@@H](CCCNC(=N)N)C(=O)N[C@@H](Cc1c[nH]c2ccccc12)C(=O)N[C@@H](Cc1c[nH]c2ccccc12)C(=O)N[C@@H](CCCNC(=N)N)C(=O)N[C@@H](Cc1c[nH]c2ccccc12)C(=O)N[C@@H](Cc1c[nH]c2ccccc12)C(=O)N[C@@H](CCCNC(=N)N)C(=O)NCC(N)=O)[C@@H](C)O [PuroA-Arg, reference compound] (H-FPVTWRWWRWWRG-NH2) | 4 | 4 | 8 (≈ 15.3 µg/mL) | 16 (≈ 30.7 µg/mL) | 8 | 16 | 32 | 128 | 8 (≈ 15.3 µg/mL) | 8 | 8 | 16 | 16 | 32 | 4 (≈ 7.67 µg/mL) | 4 (≈ 7.67 µg/mL) | 8 (≈ 15.3 µg/mL) | 16 (≈ 30.7 µg/mL) | 16 | 64 | MBRC (CV at 595 nm) LD50 (P. aeruginosa PAO1 [7]; [12]): 32 µmol/L |
| CC(C)[C@H](NC(=O)[C@@H]1CCCN1C(=O)[C@@H](N)Cc1ccccc1)C(=O)N[C@H](C(=O)N[C@@H](Cc1c[nH]c2ccccc12)C(=O)N[C@@H](CCCCN)C(=O)N[C@@H](Cc1c[nH]c2ccccc12)C(=O)N[C@@H](Cc1c[nH]c2ccccc12)C(=O)N[C@@H](CCCCN)C(=O)N[C@@H](Cc1c[nH]c2ccccc12)C(=O)N[C@@H](Cc1c[nH]c2ccccc12)C(=O)N[C@@H](CCCCN)C(=O)NCC(N)=O)[C@@H](C)O [PuroA-Lys, reference compound] (H-FPVTWKWWKWWKG-NH2) | 2 | 4 | 8 (≈ 14.7 µg/mL) | 16 (≈ 29.3 µg/mL) | 8 | 8 | 64 | 64 | 8 (≈ 14.7 µg/mL) | 4 | 8 | 8 | 16 | 32 | 2 (≈ 3.67 µg/mL) | 4 (≈ 7.34 µg/mL) | 4 (≈ 7.34 µg/mL) | 8 (≈ 14.7 µg/mL) | 32 | 64 | MBRC (CV at 595 nm) LD50 (P. aeruginosa PAO1 [7]; [12]): 32 µmol/L |
| CC(C)C[C@H](NC(=O)[C@H](Cc1ccccc1)NC(=O)[C@@H]1CCCN1C(=O)[C@H](Cc1c[nH]c2ccccc12)NC(=O)[C@H](Cc1c[nH]c2ccccc12)NC(=O)[C@H](Cc1c[nH]c2ccccc12)NC(=O)[C@@H]1CCCN1C(=O)[C@H](Cc1ccccc1)NC(=O)[C@H](CCCNC(=N)N)NC(=O)[C@H](CCCNC(=N)N)NC(=O)[C@@H](N)C(C)C)C(=O)N[C@@H](CCCNC(=N)N)C(=O)N[C@@H](CCCNC(=N)N)C(N)=O [Tritrp-Arg] | 1 | 2 | 4 (≈ 7.61 µg/mL) | 8 (≈ 15.2 µg/mL) | 1 | 2 | 8 | 16 | 2 (≈ 3.8 µg/mL) | 2 | 8 | – | 8 | 32 | 0.5 (≈ 0.951 µg/mL) | 2 (≈ 3.8 µg/mL) | 4 (≈ 7.61 µg/mL) | 8 (≈ 15.2 µg/mL) | 16 | 32 | MBIC (CV at 595 nm) LD50 (P. aeruginosa PAO1 [7]; PAO1): 4 µmol/L; MBRC (CV at 595 nm) LD50 (P. aeruginosa PAO1 [7]; PAO1): 32 µmol/L |
